Laboratory results from publication PMC11005040, “Photoactivatable Ruthenium Complexes Containing Minimal Straining Benzothiazolyl-1,2,3-triazole Chelators for Cancer Treatment” (Inorganic Chemistry, 2024).
Read-outs that look alike come from different tables or passages of the source.

Tests used:
[1] = test system: A2780 cells; experiment: Dark cytotoxic screening, MTT test, 48 h; type: cell-based, human; details: 48 h in the dark
Protocol: (§1) For dark cytotoxic screening, A2780, CHO, HeLa, and A375 cells were cultured in 96-well plates at a density of 5 × 10^3 cells/well in complete medium and incubated for 24 h at 310 K and 5% CO2 in a humidified incubator. Serial dilutions of tested compounds in cell culture media were then added at final concentrations in the range of 0 to 100 μM in a final volume of 100 μL/well (%v/v DMSO below 0.4%) for 48 h prior to MTT test. For photoactivation studies, HeLa and A375 cells were used. Treatments were added at final concentrations in the range of 0 to 500 μM. After 1 h incubation with the compounds, light irradiation treatments were applied using a LED photoreactor (Luzchem; Canada) fitted with LED lamps centered at 465 nm (final intensity 4 mW/cm^2) for 1 h. Dark control analogues were directly kept in the dark for 2 h. After incubation periods, cells were washed with saline PBS buffer and loaded with 50 μL of MTT solution (1 mg/mL) for additional 4 h, then removed and 50 μL DMSO was added to solubilize the purple formazan crystals formed in active cells. The absorbance was measured at 570 nm using a microplate reader (FLUOstar Omega) and the IC50 values were calculated based on the inhibitory rate curves using the next the equation [drawing 2] where I represents the percentage inhibition of viability observed, Imax is the maximal inhibitory effect, IC50 is the concentration that inhibits 50% of maximal growth, C is the concentration of the treatment, and n is the slope of the semilogarithmic dose–response sigmoidal curves. The nonlinear fitting was performed using SigmaPlot 14.0 software. Two independent experiments were performed with triplicate points per concentration level (n = 3).

[2] = test system: HeLa cells; experiment: Dark cytotoxic screening, MTT test, 48 h; type: cell-based, human; details: 48 h in the dark
Protocol: as §1

[3] = test system: CHO cells; experiment: Dark cytotoxic screening, MTT test, 48 h; type: cell-based; details: 48 h in the dark
Protocol: as §1

[4] = test system: HeLa cells; set-up: method as in doi:10.1016/j.dyepig.2022.110905; details: λexc 405 nm; cited from earlier work
[5] = test system: A375 cells; experiment: Dark cytotoxic screening, MTT test, 48 h; type: cell-based, human; details: 48 h in the dark
Protocol: as §1

[6] = test system: A375 cells; experiment: Photoactivation studies (phototoxicity, MTT), dark vs blue light; type: cell-based, human
Protocol: as §1

[7] = test system: HeLa cells; experiment: as above; type: cell-based, human
Protocol: as §1

[8] = test system: HeLa cells; experiment: Cell uptake by confocal microscopy; type: cell-based, human; details: 15 μM, 2 h incubation; for Cellular uptake: λexc 450 nm
Protocol: HeLa cells were seeded onto Ibidi μ-slides at 10^4 cells/cm^2 in a complete medium and incubated for 24 h at 310 K and 5% CO2 in a humidified incubator. Compounds were added at indicated concentrations for 2 h. […]

[9] = test system: HeLa cells; experiment: Confocal microscopy imaging after blue light irradiation; type: cell-based, human; details: 15 μM
Protocol: HeLa cells were seeded onto Ibidi μ-slides at 10^4 cells/cm^2 in a complete medium and incubated for 24 h at 310 K and 5% CO2 in a humidified incubator. […] Cells were then washed with PBS twice and imaged under confocal microscopy (STELLARIS Leica Microsystems) using 405 nm excitation laser.

[10] = hypoxia (2% O2), 1 h incubation then blue light 465 nm, 4 mW/cm^2, 1 h, read-out: IC50 A375 blue light
[11] = hypoxia (2% O2), dark, read-out: IC50 A375 dark
[12] = normoxia (21% O2), 1 h incubation then blue light 465 nm, 4 mW/cm^2, 1 h, read-out: IC50 A375 blue light
[13] = normoxia (21% O2), dark 2 h, read-out: IC50 A375 dark
[14] = hypoxia (2% O2), 1 h incubation then blue light 465 nm, 4 mW/cm^2, 1 h, read-out: IC50 HeLa blue light
[15] = hypoxia (2% O2), dark, read-out: IC50 HeLa dark
[16] = normoxia (21% O2), 1 h incubation then blue light 465 nm, 4 mW/cm^2, 1 h, read-out: IC50 HeLa blue light
[17] = normoxia (21% O2), dark 2 h, read-out: IC50 HeLa dark

| Compound | IC50 [1] [µM] | IC50 [2] [µM] | IC50 [3] [µM] | IC50 [5] [µM] | P.I. A375 (IC50 dark/IC50 465 nm) ([6]; hypoxia (2% O2)) | IC50 [6, 10] [µM] | IC50 [6, 11] [µM] | P.I. A375 (IC50 dark/IC50 465 nm) ([6]; normoxia) | IC50 [6, 12] [µM] | IC50 [6, 13] [µM] | P.I. HeLa (IC50 dark/IC50 465 nm) ([7]; hypoxia (2% O2)) | IC50 [7, 14] [µM] | IC50 [7, 15] [µM] | P.I. HeLa (IC50 dark/IC50 465 nm) ([7]; normoxia) | IC50 [7, 16] [µM] | IC50 [7, 17] [µM] | Intracellular distribution [8] | Cellular uptake [8] | further results |
| --- | --- | --- | --- | --- | --- | --- | --- | --- | --- | --- | --- | --- | --- | --- | --- | --- | --- | --- | --- |
| [NH2][Pt]([NH2])([Cl])[Cl] [CDDP, cisplatin, reference compound] | 1.9 ± 0.1 | 21 ± 2 | 7.8 ± 0.4 | – | – | – | – | – | – | – | – | – | – | – | – | – | – | – | – |
| CN(C)c1ccc(-n2cc(-c3nc4ccccc4s3)nn2)cc1 [L5] | – | – | – | – | – | – | – | – | – | – | – | – | – | – | – | – | – | – | Intracellular distribution [4]: evenly distributed around cell cytoplasm but not within nuclei |
| Cc1ccc(-n2cc(-c3nc4ccccc4s3)nn2)cc1.O=S(=O)([O-])C(F)(F)F.O=S(=O)([O-])C(F)(F)F.[Ru+2].c1cnc2c(c1)ccc1cccnc12.c1cnc2c(c1)ccc1cccnc12 [Ru1, [Ru(phen)2(L1)][OTf]2] | > 100 | > 100 | > 100 | > 100 | >7.5 | 66.9 ± 6.1 | > 500 | >24.4 | 20.6 ± 1.5 | > 500 | >7.1 | 70.2 ± 5 | > 500 | >10.4 | 48 ± 3.4 | > 500 | – | – | – |
| FC(F)(F)c1ccc(-n2cc(-c3nc4ccccc4s3)nn2)cc1.O=S(=O)([O-])C(F)(F)F.O=S(=O)([O-])C(F)(F)F.[Ru+2].c1cnc2c(c1)ccc1cccnc12.c1cnc2c(c1)ccc1cccnc12 [Ru3, [Ru(phen)2(L3)][OTf]2] | > 100 | > 100 | > 100 | > 100 | – | > 100 | > 500 | >6.8 | 73.5 ± 4.3 | > 500 | >5.9 | 85.2 ± 4.4 | > 500 | >6.8 | 73.5 ± 4.2 | > 500 | – | – | – |
| O=S(=O)([O-])C(F)(F)F.O=S(=O)([O-])C(F)(F)F.O=[N+]([O-])c1ccc(-n2cc(-c3nc4ccccc4s3)nn2)cc1.[Ru+2].c1cnc2c(c1)ccc1cccnc12.c1cnc2c(c1)ccc1cccnc12 [Ru4, [Ru(phen)2(L4)][OTf]2] | > 100 | > 100 | > 100 | > 100 | >9.6 | 51.9 ± 2.4 | > 500 | >26.6 | 18.8 ± 3.7 | > 500 | >12.0 | 41.7 ± 2.7 | > 500 | >14.8 | 33.8 ± 5.5 | > 500 | across the cytoplasm in punctate deposits | excellent and rapid cellular uptake | – |
| CN(C)c1ccc(-n2cc(-c3nc4ccccc4s3)nn2)cc1.O=S(=O)([O-])C(F)(F)F.O=S(=O)([O-])C(F)(F)F.[Ru+2].c1cnc2c(c1)ccc1cccnc12.c1cnc2c(c1)ccc1cccnc12 [Ru5, [Ru(phen)2(L5)][OTf]2] | > 100 | > 100 | > 100 | > 100 | – | > 100 | > 500 | >18.5 | 27.1 ± 6.2 | > 500 | >8.7 | 57.2 ± 6.4 | > 500 | >12.0 | 41.8 ± 3.9 | > 500 | across the cytoplasm in punctate deposits | excellent and rapid cellular uptake | Cell cytotoxicity by imaging, 1 min irradiation ([9]; 1 h, then blue light 1 min): no cell cytotoxicity was observed; Cell cytotoxicity by imaging, 1 h irradiation ([9]; then blue light 1 h): discernible cell damage is evident |
